Publication PMC6770469, “IDE Degrades Nociceptin/Orphanin FQ through an Insulin Regulated Mechanism” (International Journal of Molecular Sciences, 2019)
Values belong to the molecule of their own block, whether it stands above or below them. Where a SMILES comes first, the peptide text is derived from it. Where no end group is shown, it is not given here. [ ]: non-standard residue; d: D form. The star is where a group is joined. Sta = CC(C)C[C@H](N)[C@@H](O)CC(=O)O; Isovaleryl = CC(C)CC(=O)*

How the values were obtained:
mouse = settings: cited from earlier work
[1] = tested on: rat spinal cord peptidases; experiment: OFQ/N cleavage by rat spinal cord homogenate with peptidase inhibitors (MALDI-MS); assay type: biochemical; settings: rat spinal cord extract, 20 mM Tris-HCl 1 mM EDTA pH 7.8, 37 °C, 30 min; for inhibition of the formation of the (1-11) fragment from OFQ/N: PHMB 0.25 mM, pepstatin A 0.01 mM (Figure 6); for inhibition of the cleavage of OFQ/N into the bioactive fragments (1-11), (1-7), (1-6): TPCK 1 mM, PMSF 1 mM, NEM 1 mM (Figure 6)
Procedure: Tissue homogenate preparation: One rat spinal cord tissue was homogenized in 1 mL of ice-cold 20 mM Tris-HCl (Sigma, Milan, Italy) and 1 mM EDTA (Sigma, Milan, Sigma) using mechanical homogenizer. The obtained homogenate was centrifuged at 5000× g for 15 min at 4 °C. The supernatant was then centrifuged at 20,000× g for 15 min at 4 °C. Finally, the supernatant was divided into small aliquots and kept frozen at −80 °C [13].
Tissue extract (supernatant) incubation assays: Incubations were performed using one microliter of tissue extract diluted with 19 µL of 20 mM Tris-HCl 1 mM EDTA buffer pH 7.8 and 10 µL of Milli-Q water. Then, the reaction was initiated by the addition of 10 µL of OFQ/N 0.3 mM and continued at 37 °C for 30 min. Then, 40 µL of ice-cold methanol was used to stop the reaction. Incubation was repeated as mentioned above but adding different peptidase inhibitors. The inhibitors used for the incubation were: TPCK (tosyl phenylalanyl chloromethyl ketone) 1 mM, PMSF (phenylmethylsulfonyl fluoride) 1 mM, NEM (N-ethylmaleimide) 1 mM, PHMB (4-(hydroxymercuri)benzoic acid) 0.25 mM, pepstatin A 0.01 mM, and Ag^+ 1 mM. Enzyme assay including spinal cord homogenate was also validated using dynorphin B, as described previously. One microliter aliquots taken from each incubation mixture were analyzed using MALDI mass spectrometry. α-Cyano-4-hydroxycinnamic acid (4-HCCA) was used as matrix, and the final samples were spotted onto AnchorChip™ plate (Bruker Daltonics, 2013). The standard used for the calibration of the instrument is the Peptide Calibration Standard II by Bruker Daltonics, Macerata, Italy. Details and parameters of the instrument set-up were: mass range: 340–4000 Da; detector gain/reflector: 6.3x (2480 V); sample rate and digitizer settings: 2.50 GS/s; smartbeam parameter set: 4_large; positive ion mode; matrix suppression: off; random walk: complete sample; shots at raster spot: 200; limit diameter to: 800 µm; laser power: 20%; shots: 5000.

[2] = molecular target: T1, insulin-degrading enzyme (IDE) (Homo sapiens, UniProt P14735); experiment: IDE degradation assays (time-course hydrolysis of the substrate, UPLC-HRMS); assay type: in vitro ADME
T1 construct: purchased Giotto Biotech, Florence, Italy
T1 sequence (P14735 whole entry, species assumed): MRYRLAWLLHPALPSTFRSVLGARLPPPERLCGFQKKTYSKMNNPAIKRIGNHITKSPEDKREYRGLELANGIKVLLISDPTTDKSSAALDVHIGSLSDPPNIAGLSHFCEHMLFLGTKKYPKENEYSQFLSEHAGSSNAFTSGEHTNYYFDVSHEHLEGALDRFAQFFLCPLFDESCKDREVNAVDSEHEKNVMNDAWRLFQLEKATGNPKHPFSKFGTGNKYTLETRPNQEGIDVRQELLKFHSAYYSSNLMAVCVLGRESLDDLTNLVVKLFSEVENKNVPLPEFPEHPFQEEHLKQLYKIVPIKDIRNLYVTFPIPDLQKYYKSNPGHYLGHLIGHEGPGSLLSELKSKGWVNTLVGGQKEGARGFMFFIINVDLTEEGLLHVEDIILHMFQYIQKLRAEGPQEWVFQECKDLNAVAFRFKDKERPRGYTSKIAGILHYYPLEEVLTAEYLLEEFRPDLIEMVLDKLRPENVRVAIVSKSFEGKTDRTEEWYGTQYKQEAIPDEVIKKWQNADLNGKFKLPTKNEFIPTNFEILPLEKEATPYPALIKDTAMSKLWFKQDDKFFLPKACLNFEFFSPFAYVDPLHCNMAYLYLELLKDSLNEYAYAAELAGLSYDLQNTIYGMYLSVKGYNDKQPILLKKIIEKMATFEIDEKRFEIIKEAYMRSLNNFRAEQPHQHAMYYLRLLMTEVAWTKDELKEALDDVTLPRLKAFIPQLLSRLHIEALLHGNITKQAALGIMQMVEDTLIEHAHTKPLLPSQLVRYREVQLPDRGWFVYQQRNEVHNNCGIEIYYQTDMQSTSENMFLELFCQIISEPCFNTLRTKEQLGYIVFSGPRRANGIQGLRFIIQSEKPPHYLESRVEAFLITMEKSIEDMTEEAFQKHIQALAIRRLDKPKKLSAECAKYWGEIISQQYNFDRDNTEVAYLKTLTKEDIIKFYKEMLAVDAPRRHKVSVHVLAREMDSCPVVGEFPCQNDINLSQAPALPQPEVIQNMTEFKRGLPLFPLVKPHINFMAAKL
Procedure: IDE degradation assays: Insulin (Ins, 2 µM, purchased from Sigma, Milan, Italy) and nociceptin peptide (OFQ/N, 2 µM, synthesized by the Fmoc solid phase synthesis and purified in our laboratory using RP HPLC) were tested for their purity using electrospray mass spectrometry (over 98% purity), and hydrolyzed in the presence of insulin-degrading enzyme (IDE, 30 nM, purchased from Giotto Biotech, Florence, Italy) in phosphate buffer 1 mM (pH 7.4, Sigma). We applied 1-16 sequence of OFQ/N because there is no difference in binding of this fragment to NOP receptors. Ins and OFQ/N were hydrolyzed both separately and in a mixture. Moreover, a pre-incubation of OFQ/N with IDE for 20 min was also performed before the addition of Ins. In order to quench the reaction, the samples were diluted 1:1 with 1% TFA aqueous solution.
The peptide content of all samples was analyzed using a Q Exactive hybrid quadrupole-Orbitrap mass spectrometer (Thermo Scientific, Milan, Italy) coupled to an Ultimate 3000 HPLC RSLCnano system (Dionex Thermo Scientific, Milan, Italy) through an EASY-Spray source (Thermo Scientific, Milan, Italy) by using the instrument settings previously reported.

Molecule: (1-6): OFQ/N fragment (1-6), final product from (1-11) (FGGFTG; Nociceptin; UniProt Q13519 130-135, looked up, fragment)
effect in different analgesic tests (bi-phasic) (mouse; after ICV (Intracerebroventricular) and intrathecal injection, as reported in the literature): antinociception followed by a hyperalgesia

inhibition of the formation of the (1-11) fragment from OFQ/N [1]: slightly inhibits
Molecule: CC(C)CC(=O)N[C@H](C(=O)N[C@H](C(=O)N[C@@H](CC(C)C)[C@@H](O)CC(=O)N[C@@H](C)C(=O)N[C@@H](CC(C)C)[C@@H](O)CC(=O)O)C(C)C)C(C)C [Pepstatin A] (Isovaleryl-VV[Sta]A[Sta]-OH)

Molecule: O=C(O)c1cc[c]([Hg][OH])cc1 [PHMB, 4-(hydroxymercuri)benzoic acid]
inhibition of the formation of (1-7) and (1-6) from OFQ/N ([1]; PHMB 0.25 mM (Figure 6)): inhibits | inhibition of the formation of the (1-11) fragment from OFQ/N [1]: blocks the formation of the (1-11)fragment more than all the other inhibitors

Molecule: (1-7): OFQ/N fragment (1-7), bioactive shorter sequence (FGGFTGA; Nociceptin; UniProt Q13519 130-136, looked up, fragment)
effect on hyperalgesia induced by OFQ/N (mouse; injected in mice): blocks hyperalgesia

Molecule: Cc1ccc(S(=O)(=O)N[C@@H](Cc2ccccc2)C(=O)CCl)cc1 [TPCK, tosyl phenylalanyl chloromethyl ketone]
inhibition of the cleavage of OFQ/N into the bioactive fragments (1-11), (1-7), (1-6) [1]: not efficiently inhibited

inhibition of the cleavage of OFQ/N into the bioactive fragments (1-11), (1-7), (1-6) [1]: does not show inhibition
Molecule: CCN1C(=O)C=CC1=O [NEM, N-ethylmaleimide]

Molecule: O=S(=O)(F)Cc1ccccc1 [PMSF, phenylmethylsulfonyl fluoride]
inhibition of the cleavage of OFQ/N into the bioactive fragments (1-11), (1-7), (1-6) [1]: not efficiently inhibited

Molecule: FGGFTGARKSARKLAN [OFQ/N, Nociceptin/Orphanin 1-16]
time within which the substrate was almost completely degraded by IDE ([2]; OFQ/N 2 µM alone, IDE 30 nM, phosphate buffer 1 mM pH 7.4, 37 °C, LC-MS (Figure 3A)): ≤ 10 min | OFQ/N content as % of the original value ([2]; OFQ/N and Ins 1:1 molar ratio (2 µM each) co-incubated with IDE 30 nM, phosphate buffer 1 mM pH 7.4, 37 °C, 30 min reaction, LC-MS (Figure 3B)): 80% | content of OFQ/N, fold lower than its starting value ([2]; after 20 min pre-incubation of OFQ/N 2 µM with IDE 30 nM at 37 °C, before addition of Ins, phosphate buffer 1 mM pH 7.4, LC-MS (Figure 4A)): 5 fold
